Numbers after ± are expanded uncertainties.
Test: xn = mol fraction of the nth substance listed
Conditions: 100 kPa, Liquid; for electrical conductivity: Alternating current cell with electrodes; for viscosity: Cone and plate viscometry; for mass density: Vibrating tube method

C1CC[NH2+]C1.O=[N+]([O-])[O-] [pyrrolidinium nitrate] + CC1COC(=O)O1
Conditions | electrical conductivity [S/m] | mass density [kg/m3] | viscosity [mPa·s]
258.15 K, x1 = 0.3 | 0.387 ± 0.031 | – | –
260.15 K, x1 = 0.1 | 0.142 ± 0.011 | – | –
260.15 K, x1 = 0.22 | 0.315 ± 0.025 | – | –
262.15 K, x1 = 0.5 | 0.673 ± 0.054 | – | –
263.15 K, x1 = 0.3 | 0.481 ± 0.038 | – | –
266.45 K, x1 = 0.22 | 0.376 ± 0.03 | – | –
268.15 K, x1 = 0.1 | 0.207 ± 0.017 | – | –
268.15 K, x1 = 0.3 | 0.585 ± 0.047 | – | –
268.15 K, x1 = 0.5 | 0.91 ± 0.073 | – | –
270.15 K, x1 = 0.8 | 0.0803 ± 0.0064 | – | –
273.15 K, x1 = 0.1 | 0.243 ± 0.019 | – | –
273.15 K, x1 = 0.22 | 0.446 ± 0.036 | – | –
273.15 K, x1 = 0.3 | 0.694 ± 0.056 | – | –
273.15 K, x1 = 0.5 | 1.1 ± 0.088 | – | –
273.15 K, x1 = 0.8 | 0.118 ± 0.009 | – | –
278.15 K, x1 = 0.1 | 0.281 ± 0.022 | – | –
278.15 K, x1 = 0.22 | 0.505 ± 0.04 | – | –
278.15 K, x1 = 0.3 | 0.807 ± 0.065 | – | –
278.15 K, x1 = 0.5 | 1.19 ± 0.095 | – | –
278.15 K, x1 = 0.8 | 0.206 ± 0.017 | – | –
283.15 K, x1 = 0.1 | 0.322 ± 0.026 | 1221 ± 2.4 | 5.97
283.15 K, x1 = 0.22 | 0.562 ± 0.045 | 1225.2 ± 2.5 | 7.55
283.15 K, x1 = 0.3 | 0.92 ± 0.074 | 1227.5 ± 2.5 | 9.98
283.15 K, x1 = 0.4 | – | 1229.8 ± 2.5 | 14.1
283.15 K, x1 = 0.5 | 1.49 ± 0.12 | 1231.5 ± 2.5 | 18.85
283.15 K, x1 = 0.62 | – | 1233 ± 2.5 | 23.36
283.15 K, x1 = 0.7 | – | 1233.3 ± 2.6 | 28.76
283.15 K, x1 = 0.8 | 0.352 ± 0.028 | 1234 ± 2.6 | 35.56
283.15 K, x1 = 1 | – | 1235 ± 2.8 | 58.87
284.15 K, x1 = 1 | 2.93 ± 0.23 | – | –
288.15 K, x1 = 0.1 | 0.362 ± 0.029 | – | –
288.15 K, x1 = 0.22 | 0.606 ± 0.048 | – | –
288.15 K, x1 = 0.3 | 1.04 ± 0.083 | – | –
288.15 K, x1 = 0.5 | 1.7 ± 0.14 | – | –
288.15 K, x1 = 0.8 | 0.644 ± 0.052 | – | –
293.15 K, x1 = 0.1 | 0.405 ± 0.032 | 1211 ± 2.4 | 4.71
293.15 K, x1 = 0.22 | 0.702 ± 0.056 | 1215.8 ± 2.4 | 5.73
293.15 K, x1 = 0.3 | 1.17 ± 0.093 | 1218.5 ± 2.4 | 7.37
293.15 K, x1 = 0.4 | – | 1221.2 ± 2.5 | 10.17
293.15 K, x1 = 0.5 | 1.91 ± 0.15 | 1223.1 ± 2.5 | 13.06
293.15 K, x1 = 0.62 | – | 1225 ± 2.5 | 17.16
293.15 K, x1 = 0.7 | – | 1225.6 ± 2.5 | 20.39
293.15 K, x1 = 0.8 | 1.44 ± 0.12 | 1226.5 ± 2.6 | 24.65
293.15 K, x1 = 1 | 3.71 ± 0.3 | 1228 ± 2.7 | 40.29
298.15 K, x1 = 0.1 | 0.449 ± 0.036 | – | –
298.15 K, x1 = 0.22 | 0.745 ± 0.06 | – | –
298.15 K, x1 = 0.3 | 1.3 ± 0.1 | – | –
298.15 K, x1 = 0.5 | 2.13 ± 0.17 | – | –
298.15 K, x1 = 0.8 | 2.49 ± 0.2 | – | –
298.15 K, x1 = 1 | 4.22 ± 0.34 | – | –
303.15 K, x1 = 0.1 | 0.497 ± 0.04 | 1200.9 ± 2.4 | 3.6
303.15 K, x1 = 0.22 | 0.832 ± 0.067 | 1206.4 ± 2.4 | 4.5
303.15 K, x1 = 0.3 | 1.44 ± 0.12 | 1209.5 ± 2.4 | 5.71
303.15 K, x1 = 0.4 | – | 1212.6 ± 2.4 | 7.73
303.15 K, x1 = 0.5 | 2.37 ± 0.19 | 1214.9 ± 2.5 | 9.78
303.15 K, x1 = 0.62 | – | 1216.9 ± 2.5 | 12.55
303.15 K, x1 = 0.7 | – | 1218 ± 2.5 | 15.17
303.15 K, x1 = 0.8 | 2.8 ± 0.22 | 1218.9 ± 2.6 | 18.53
303.15 K, x1 = 1 | – | 1220.4 ± 2.7 | 28.81
304.15 K, x1 = 1 | 4.94 ± 0.4 | – | –
308.15 K, x1 = 0.1 | 0.546 ± 0.044 | – | –
308.15 K, x1 = 0.22 | 0.93 ± 0.074 | – | –
308.15 K, x1 = 0.3 | 1.59 ± 0.13 | – | –
308.15 K, x1 = 0.5 | 2.62 ± 0.21 | – | –
308.15 K, x1 = 0.8 | 3.13 ± 0.25 | – | –
313.15 K, x1 = 0.1 | 0.597 ± 0.048 | 1191 ± 2.4 | 2.66
313.15 K, x1 = 0.22 | 1.03 ± 0.082 | 1197 ± 2.4 | 3.64
313.15 K, x1 = 0.3 | 1.74 ± 0.14 | 1200.6 ± 2.4 | 4.57
313.15 K, x1 = 0.4 | – | 1204.1 ± 2.4 | 6.07
313.15 K, x1 = 0.5 | 2.88 ± 0.23 | 1206.7 ± 2.4 | 7.59
313.15 K, x1 = 0.62 | – | 1209.1 ± 2.5 | 9.6
313.15 K, x1 = 0.7 | – | 1210.4 ± 2.5 | 11.72
313.15 K, x1 = 0.8 | 3.46 ± 0.28 | 1212 ± 2.6 | 14.49
313.15 K, x1 = 1 | 5.97 ± 0.48 | 1213.1 ± 2.7 | 20.91
318.15 K, x1 = 0.1 | 0.65 ± 0.052 | – | –
318.15 K, x1 = 0.22 | 1.13 ± 0.09 | – | –
318.15 K, x1 = 0.3 | 1.9 ± 0.15 | – | –
318.15 K, x1 = 0.5 | 3.15 ± 0.25 | – | –
318.15 K, x1 = 0.8 | 3.81 ± 0.3 | – | –
323.15 K, x1 = 0.1 | 0.704 ± 0.056 | 1181.1 ± 2.4 | 2.24
323.15 K, x1 = 0.22 | 1.23 ± 0.098 | 1187.7 ± 2.4 | 3.04
323.15 K, x1 = 0.3 | 2.06 ± 0.17 | 1191.7 ± 2.4 | 3.75
323.15 K, x1 = 0.4 | – | 1195.7 ± 2.4 | 4.91
323.15 K, x1 = 0.5 | 3.43 ± 0.27 | 1198.6 ± 2.4 | 6.07
323.15 K, x1 = 0.62 | – | 1201.4 ± 2.5 | 7.57
323.15 K, x1 = 0.7 | – | 1203 ± 2.5 | 9.33
323.15 K, x1 = 0.8 | 4.18 ± 0.33 | 1204 ± 2.5 | 10.97
323.15 K, x1 = 1 | 7.17 ± 0.57 | 1205.5 ± 2.7 | 16.7
328.15 K, x1 = 0.1 | 0.759 ± 0.061 | – | –
328.15 K, x1 = 0.22 | 1.33 ± 0.11 | – | –
328.15 K, x1 = 0.3 | 2.22 ± 0.18 | – | –
328.15 K, x1 = 0.5 | 3.72 ± 0.3 | – | –
328.15 K, x1 = 0.8 | 4.57 ± 0.37 | – | –
333.15 K, x1 = 0.1 | 0.816 ± 0.065 | 1171.2 ± 2.3 | 1.91
333.15 K, x1 = 0.22 | 1.44 ± 0.12 | 1178.5 ± 2.4 | 2.57
333.15 K, x1 = 0.3 | 2.39 ± 0.19 | 1182.9 ± 2.4 | 3.14
333.15 K, x1 = 0.4 | – | 1187.4 ± 2.4 | 4.06
333.15 K, x1 = 0.5 | 4.01 ± 0.32 | 1190.6 ± 2.4 | 4.97
333.15 K, x1 = 0.62 | – | 1193.8 ± 2.4 | 6.15
333.15 K, x1 = 0.7 | – | 1195.6 ± 2.5 | 7.61
333.15 K, x1 = 0.8 | 4.97 ± 0.4 | 1196.5 ± 2.5 | 8.83
333.15 K, x1 = 1 | 8.51 ± 0.68 | 1197.2 ± 2.7 | 13.3
338.15 K, x1 = 0.1 | 0.874 ± 0.07 | – | –
338.15 K, x1 = 0.22 | 1.54 ± 0.12 | – | –
338.15 K, x1 = 0.3 | 2.56 ± 0.2 | – | –
338.15 K, x1 = 0.5 | 4.32 ± 0.35 | – | –
338.15 K, x1 = 0.8 | 5.38 ± 0.43 | – | –
343.15 K, x1 = 0.1 | 0.932 ± 0.075 | 1161.4 ± 2.3 | 1.65
343.15 K, x1 = 0.22 | 1.66 ± 0.13 | 1169.3 ± 2.3 | 2.2
343.15 K, x1 = 0.3 | 2.73 ± 0.22 | 1174.2 ± 2.4 | 2.68
343.15 K, x1 = 0.4 | – | 1179.1 ± 2.4 | 3.44
343.15 K, x1 = 0.5 | 4.62 ± 0.37 | 1182.7 ± 2.4 | 4.16
343.15 K, x1 = 0.62 | – | 1186.2 ± 2.4 | 5.19
343.15 K, x1 = 0.7 | – | 1188 ± 2.5 | 6.42
343.15 K, x1 = 0.8 | 5.8 ± 0.46 | 1189.5 ± 2.5 | 7.91
343.15 K, x1 = 1 | – | 1190.2 ± 2.6 | 11.17
344.95 K, x1 = 1 | 9.3 ± 0.74 | – | –
348.15 K, x1 = 0.1 | 0.992 ± 0.079 | – | –
348.15 K, x1 = 0.22 | 1.77 ± 0.14 | – | –
348.15 K, x1 = 0.3 | 2.91 ± 0.23 | – | –
348.15 K, x1 = 0.5 | 4.93 ± 0.39 | – | –
348.15 K, x1 = 0.8 | 6.24 ± 0.5 | – | –
353.15 K, x1 = 0.1 | 1.05 ± 0.084 | 1151.6 ± 2.3 | 1.45
353.15 K, x1 = 0.22 | 1.88 ± 0.15 | 1160.1 ± 2.3 | 1.91
353.15 K, x1 = 0.3 | 3.09 ± 0.25 | 1165.4 ± 2.3 | 2.32
353.15 K, x1 = 0.4 | – | 1170.8 ± 2.4 | 2.95
353.15 K, x1 = 0.5 | 5.24 ± 0.42 | 1174.9 ± 2.4 | 3.54
353.15 K, x1 = 0.62 | – | 1178.7 ± 2.4 | 4.3
353.15 K, x1 = 0.7 | – | 1180 ± 2.4 | 5.2
353.15 K, x1 = 0.8 | 6.68 ± 0.53 | 1181.5 ± 2.5 | 6.35
353.15 K, x1 = 1 | – | 1182 ± 2.6 | 9.28
353.65 K, x1 = 1 | 10.5 ± 0.84 | – | –
358.15 K, x1 = 0.1 | 1.11 ± 0.089 | – | –
358.15 K, x1 = 0.22 | 1.99 ± 0.16 | – | –
358.15 K, x1 = 0.3 | 3.19 ± 0.26 | – | –
358.15 K, x1 = 0.5 | 5.55 ± 0.44 | – | –
358.15 K, x1 = 0.8 | 7.12 ± 0.57 | – | –
362.15 K, x1 = 0.3 | 3.35 ± 0.27 | – | –
363.15 K, x1 = 0.5 | 5.83 ± 0.47 | – | –
363.15 K, x1 = 0.8 | 7.57 ± 0.61 | – | –

Reference: the NIST ThermoML archive (doi:10.1016/j.jct.2012.11.020)
